{"source": "patent US20250073184A1", "about": "“CANNABIGEROQUINONE COMPOUNDS, COMPOSITIONS INCLUDING SUCH COMPOUNDS, AND USES OF SUCH COMPOUNDS AND COMPOSITIONS” (Juva Life, Inc., priority 2021, published 2025)", "key": {"[1]": {"tested_on": "IL-1β", "test": "IL-1β inhibitory activity", "assay_type": "cell-based"}, "[2]": {"tested_on": "IFNgamma", "test": "IFNgamma secretion assay in human PBMCs (PHA-M, ELISA)", "assay_type": "cell-based", "details": "for EC50: read-out: Inhibitory Activity EC50, IFNγ", "procedure": "Fetal bovine serum (FBS) was obtained from ThermoFisher (Cat #16000044). • Other reagents: 96 well TC plates were obtained from ThermoFisher (Cat #07-2000-90).\nIFN-gamma was assessed using a standard ELISA protocol. Cryopreserved PBMCs were thawed in a water bath and transferred to 50 mL polypropylene tubes. The cells were washed two times with 25 mL of RPMI medium supplemented with 5% of regular FBS and re-suspended at a density of 1.5^^6 cells/mL. The cells were plated into 96 well TC late (100 uL/well). Serially diluted compound was added to the cells in duplicate wells for each concentration. Control wells received DMSO only (0.3% final). The cells were pre-incubated with compound for 2 hr. After pre-incubation, the cells were stimulated by PHA-M (10 ug/mL) for 40 hr. Control samples with and without PHA-M in the absence of compound were assembled in each test plate. IFNg was detected in media supernatants by using a sandwich anti-IFNg ELISA kit (BD Biosciences) according to protocol provided by the manufacturer. ELISA readout (optical density at 450 nm) is commensurable with the amount of IFNg produced by the cells. Assay window was determined in each experiment by comparing average OD450 values in stimulated and un-stimulated samples in the absence of compound. ELISA calibration was performed in each detection plate using serially diluted recombinant human IFN gamma, to ensure that OD450 values for all test samples were within linear range of detection. %-Inhibition by compound was calculated using following equation:\nwhere OD450100% is optical density in control samples stimulated with PHA-M without compound, OD4500% is optical density in unstimulated control samples, and OD450compound is optical density in a sample stimulated with PHA-M in the presence of compound.\nThe calculated %-Inh values were plotted against compound concentration. To determine IC50 values, dose-response curves were fitted by a 4-parameter sigmoid inhibition model using XLFit® software (IDBS)."}, "[3]": {"tested_on": "SK-MEL-28 melanoma cell line", "test": "SK-MEL-28 cell line toxicity (Cell titer Glo viability)", "assay_type": "cell-based", "details": "SK-MEL-28, 72 h", "procedure": "Culture medium were purchased from ATCC, USA.\n• General cell culture reagents and plastic. • 384-Well Flat white Poly-styrene TC-Treated Microplates (Corning). • 384 well poly-propylene plates (acoustic grade, Labcyte) for compound dilution. • Cell titer Glo luminescent Cell Viability reagent (Cat #G7571, Promega).\n90 nL DMSO is added to control wells. […] Luminescence was then recorded using Synergy Neo2Multi-mode Reader."}, "[4]": {"tested_on": "HL-60 acute promyelocytic leukemia cell line", "test": "HL-60 cell line toxicity (Cell titer Glo viability)", "details": "HL-60, 72 h", "procedure": "The half maximal inhibition concentration (IC50) for each compound was determined by harvesting cells during the logarithmic growth period and then counting cell number using hemocytometer. […] Then, using a Biomek FX, test articles were serially diluted (10 mM top, 3× dilution intervals) along with a reference inhibitor (1 mM top, 3× dilution intervals) in acoustic grade Labcyte plate. Then, using an acoustic dispenser (Labcyte550), compounds were added as serially diluted to plate with cells: 90 nL of serially diluted compounds per well. 90 nL DMSO is added to control wells. Test plates were incubated for 72 h in the humidified incubator at 37° C. with 5% CO2. 25 μL of reconstituted Cell titer Glo reagent was added to each well. Each test plate was then incubated for 20 min at room temperature. Luminescence was then recorded using Synergy Neo2Multi-mode Reader.\nIn order to calculate intersect IC50, a dose-response curve was fitted using nonlinear regression model with a sigmoidal dose response.\nThe formula for calculating surviving rate is shown below, and the intersect IC50 was calculated according to the dose-response curve generated by the software:\nThe compounds of interest were assessed cell viability in the HL-60 acute promyelocytic leukemia cell line (ATCC® CCL-240). […] Culture medium were purchased from ATCC, USA."}, "[5]": {"target": "T1, cannabinoid receptor 1 (CNR1) (Homo sapiens, UniProt P21554)", "T1 construct": "host or cells: CHO-K1", "T1 sequence (P21554 whole entry)": "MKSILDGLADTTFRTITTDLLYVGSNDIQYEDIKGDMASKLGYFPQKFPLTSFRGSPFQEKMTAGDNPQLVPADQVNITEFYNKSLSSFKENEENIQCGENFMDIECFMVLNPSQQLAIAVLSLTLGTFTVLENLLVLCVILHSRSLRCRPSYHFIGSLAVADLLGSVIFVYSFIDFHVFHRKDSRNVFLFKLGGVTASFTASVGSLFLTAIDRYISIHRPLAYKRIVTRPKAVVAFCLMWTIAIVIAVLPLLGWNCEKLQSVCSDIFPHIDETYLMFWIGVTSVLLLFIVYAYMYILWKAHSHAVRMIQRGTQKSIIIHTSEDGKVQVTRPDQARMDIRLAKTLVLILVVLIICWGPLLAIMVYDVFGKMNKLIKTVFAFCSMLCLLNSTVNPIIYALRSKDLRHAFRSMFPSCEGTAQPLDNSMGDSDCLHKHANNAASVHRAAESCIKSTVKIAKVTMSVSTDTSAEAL", "test": "CB1 receptor agonist assay (cAMP Hunter eXpress, CNR1 CHO-K1 cells)", "assay_type": "cell-based", "details": "agonist mode, Forskolin-stimulated cAMP", "procedure": "The assays were performed in cAMP Hunter eXpress cells engineered to overexpress naturally Gi/Go-coupled wildtype cannabinoid receptor 1 (CNR1) or cannabinoid receptor 2 (CNR2) in CHO-K1 cell type. In these cells, CB1 and/or […] agonists inhibit production of intracellular cAMP in response to stimulation with Forskolin. cAMP levels are determined using luminogenic detection reagents provided with the Hunter eXpress cAMP detection kit.\n• Assay ready CNR1 CHO-K1 cells were obtained from Eurofins/Discover X, cat #95-0071E2 • Assay ready CNR2 CHO-K1 cells were obtained from Eurofins/Discover X, cat #95-0183E2 • Hunter eXpress cAMP detection kit was also from Discover X. The kit includes all cAMP detection reagents, Forskolin, complete cell plating medium and cell assay buffer.\nThe Assay-Ready CNR1 CHO-K1 or CNR2 CHO-K1 cells were thawed and re-suspended in pre-warmed Assay Complete plating medium and inoculated into 96 well plate at a density of 30,000 cells in 100 μL. The plates with cells were incubated for 24 h at 37° C. in 5% CO2. […] The cells were stimulated with the Forskolin/compound buffer for 30 min. […] The plate was read on Biotek Synergy Neo2 reader in luminescent mode. […] Relative luminescence units (RLUs) were plotted against compound concentration to determine apparent EC50 values of the agonist compounds."}, "[6]": {"details": "PBMC, human PBMCs, PHA-M 10 ug/mL 40 hr"}}, "note": "Like-named read-outs stand apart in the source and are kept apart here."}
{"compound": "CCCCCc1cc(OC(C)=O)c(C/C=C(\\C)CCC=C(C)C)c(O)c1OC(C)=O", "note": "[Formula XLIII]", "values": [{"measurement": "EC50", "setting": "[1]", "value": 890, "unit": "nM"}, {"measurement": "EC50", "setting": "[2]; [6]", "value": 1130, "unit": "nM"}]}
{"compound": "CCCCCc1cc(OC)c(C/C=C(\\C)CCC=C(C)C)c(O)c1OC", "note": "[Formula XLII]", "values": [{"measurement": "EC50", "setting": "[1]", "value": "> 10000", "unit": "nM"}, {"measurement": "EC50", "setting": "[2]; [6]", "value": 4100, "unit": "nM"}]}
{"compound": "CCCCCC1=C(NC)C(=O)C(C/C=C(\\C)CCC=C(C)C)=C(O)C1=O", "note": "[Formula XLI]", "values": [{"measurement": "EC50", "setting": "[1]", "value": 120, "unit": "nM"}, {"measurement": "EC50", "setting": "[2]; [6]", "value": 2510, "unit": "nM"}]}
{"compound": "CCCCCc1cc(O)c(C/C=C(\\C)CCC=C(C)C)c(O)c1O", "note": "[Formula XXXIX]", "values": [{"measurement": "EC50", "setting": "[1]", "value": 890, "unit": "nM"}, {"measurement": "EC50", "setting": "[2]; Homo sapiens, PBMC, 40 h", "value": 1850, "unit": "nM"}]}
{"compound": "Cannabigerol Quinone [Formula VI]", "values": [{"measurement": "EC50", "setting": "[3]", "value": "> 30000", "unit": "nM"}, {"measurement": "higher tolerance of SK-MEL-28 cells to the compound than staurosporine", "setting": "[3]", "value": "more than 250 fold"}, {"measurement": "Cell Viability (%)", "setting": "[3]; 0.00017 uM", "value": 100.0, "unit": "%"}, {"measurement": "Cell Viability (%)", "setting": "[3]; 0.00051 uM", "value": 97.2, "unit": "%"}, {"measurement": "Cell Viability (%)", "setting": "[3]; 0.0015 uM", "value": 96.2, "unit": "%"}, {"measurement": "Cell Viability (%)", "setting": "[3]; 0.0046 uM", "value": 101.0, "unit": "%"}, {"measurement": "Cell Viability (%)", "setting": "[3]; 0.014 uM", "value": 98.5, "unit": "%"}, {"measurement": "Cell Viability (%)", "setting": "[3]; 0.041 uM", "value": 99.9, "unit": "%"}, {"measurement": "Cell Viability (%)", "setting": "[3]; 0.12 uM", "value": 100.0, "unit": "%"}, {"measurement": "Cell Viability (%)", "setting": "[3]; 0.37 uM", "value": 101.0, "unit": "%"}, {"measurement": "Cell Viability (%)", "setting": "[3]; 1.1 uM", "value": 99.9, "unit": "%"}, {"measurement": "Cell Viability (%)", "setting": "[3]; 3.3 uM", "value": 104.0, "unit": "%"}, {"measurement": "Cell Viability (%)", "setting": "[3]; 10 uM", "value": 99.0, "unit": "%"}, {"measurement": "Cell Viability (%)", "setting": "[3]; 30 uM", "value": 83.2, "unit": "%"}, {"measurement": "higher tolerance of HL-60 cells to the compound than staurosporine", "setting": "[4]", "value": "more than 1,500 fold"}, {"measurement": "Cell Viability (%)", "setting": "[4]; 0.00017 uM", "value": 102.3, "unit": "%"}, {"measurement": "Cell Viability (%)", "setting": "[4]; 0.00051 uM", "value": 113.4, "unit": "%"}, {"measurement": "Cell Viability (%)", "setting": "[4]; 0.0015 uM", "value": 91.6, "unit": "%"}, {"measurement": "Cell Viability (%)", "setting": "[4]; 0.0046 uM", "value": 94.0, "unit": "%"}, {"measurement": "Cell Viability (%)", "setting": "[4]; 0.014 uM", "value": 94.1, "unit": "%"}, {"measurement": "Cell Viability (%)", "setting": "[4]; 0.041 uM", "value": 83.6, "unit": "%"}, {"measurement": "Cell Viability (%)", "setting": "[4]; 0.12 uM", "value": 85.1, "unit": "%"}, {"measurement": "Cell Viability (%)", "setting": "[4]; 0.37 uM", "value": 91.3, "unit": "%"}, {"measurement": "Cell Viability (%)", "setting": "[4]; 1.1 uM", "value": 91.3, "unit": "%"}, {"measurement": "Cell Viability (%)", "setting": "[4]; 3.3 uM", "value": 97.8, "unit": "%"}, {"measurement": "Cell Viability (%)", "setting": "[4]; 10 uM", "value": 81.9, "unit": "%"}, {"measurement": "Cell Viability (%)", "setting": "[4]; 30 uM", "value": 61.5, "unit": "%"}, {"measurement": "EC50", "setting": "[4]; read-out: EC50 (cell viability)", "value": "> 30000", "unit": "nM"}, {"measurement": "EC50", "setting": "[1]", "value": 5300, "unit": "nM"}, {"measurement": "IC50", "setting": "[5]", "value": "> 3000", "unit": "nM"}, {"measurement": "stronger inhibition of IFNγ compared to Cox-2", "setting": "[2]", "value": "over 60 fold"}, {"measurement": "EC50", "setting": "[2]; human PBMCs, PHA-M 10 ug/mL 40 hr", "value": 910, "unit": "nM"}]}
